Values quoted from earlier work in US9155707B2, “Core-shell microspheres” (Agency for Science, Technology and Research, priority 2011, dated 2015).

Columns and labels:
[1] = reference line in FIG. 10

solubility in water	SMILES	toxic limit of drug permissible in the blood plasma [1] [ng/mL]
–	CCCCN1CCCCC1C(=O)Nc1c(C)cccc1C (stereo not drawn) [Bupivacaine, bupivacaine]	4000
not in water	O=c1[nH]cc(F)c(=O)[nH]1 [Fluorouracil (5-FU), Fluorouracil]	–
not very soluble in water	O=S1(=O)OC(c2ccc(O)c(Cl)c2)(c2ccc(O)c(Cl)c2)c2ccccc21 [chlorophenol red (CR), chlorophenol red]	–
